Measured values as given in ChEMBL document CHEMBL5113480, “Discovery of novel biphenyl-substituted pyridone derivatives as potent non-nucleoside reverse transcriptase inhibitors with promising oral bioavailability” (Eur J Med Chem, 2022).
pEC50, pIC50: −log10 of the molar value.

Tests used:
[1] = test system: Human immunodeficiency virus 1; assay: Antiviral activity against HIV-1 IIIB infected in human MT4 cells assessed as reduction in viral replication by MTT assay; type: functional, organism-based; details: Human immunodeficiency virus 1, IIIB
[2] = test system: Human immunodeficiency virus 1; assay: Antiviral activity against HIV-1 ROD infected in human MT4 cells assessed as reduction in viral replication by MTT assay; type: functional, organism-based
[3] = Selectivity index, ratio of CC50 for cytotoxicity against human MT4 cells to EC50 of Anti-HIV activity against HIV-1 IIIB infected in human MT4 cells; type: toxicity, cell-based; details: read-out: Ratio CC50/EC50
[4] = test system: Human immunodeficiency virus 1; assay: Antiviral activity against HIV-1 L100I mutant infected in human MT4 cells assessed as reduction in viral replication by MTT assay; type: functional, organism-based; details: Human immunodeficiency virus 1, L100I mutant
[5] = test system: Human immunodeficiency virus 1; assay: Antiviral activity against HIV-1 K103N mutant infected in human MT4 cells assessed as reduction in viral replication by MTT assay; type: functional, organism-based; details: Human immunodeficiency virus 1, K103N mutant
[6] = test system: Human immunodeficiency virus 1; assay: Antiviral activity against HIV-1 Y181C mutant infected in human MT4 cells assessed as reduction in viral replication by MTT assay; type: functional, organism-based; details: Human immunodeficiency virus 1, Y181C mutant
[7] = test system: Human immunodeficiency virus 1; assay: Antiviral activity against HIV-1 Y188L mutant infected in human MT4 cells assessed as reduction in viral replication by MTT assay; type: functional, organism-based; details: Human immunodeficiency virus 1, Y188L mutant
[8] = test system: Human immunodeficiency virus 1; assay: Antiviral activity against HIV-1 E138K mutant infected in human MT4 cells assessed as reduction in viral replication by MTT assay; type: functional, organism-based; details: Human immunodeficiency virus 1, E138K mutant
[9] = test system: Human immunodeficiency virus 1; assay: Antiviral activity against HIV-1 F227L-V106A mutant infected in human MT4 cells assessed as reduction in viral replication by MTT assay; type: functional, organism-based; details: Human immunodeficiency virus 1, F227L-V106A mutant
[10] = test system: Human immunodeficiency virus 1; assay: Antiviral activity against HIV-1 K103N-Y181C mutant infected in human MT4 cells assessed as reduction in viral replication by MTT assay; type: functional, organism-based; details: Human immunodeficiency virus 1, K103N-Y181C mutant
[11] = target: Human immunodeficiency virus type 1 reverse transcriptase (Human immunodeficiency virus 1, UniProt Q72547); assay: Inhibition of wild type HIV-1 Reverse transcriptase
[12] = target: T1, Cytochrome P450 1A2 (Homo sapiens, UniProt P05177); assay: Inhibition of CYP1A2 (unknown origin); type: ADME
T1 sequence (P05177 whole entry): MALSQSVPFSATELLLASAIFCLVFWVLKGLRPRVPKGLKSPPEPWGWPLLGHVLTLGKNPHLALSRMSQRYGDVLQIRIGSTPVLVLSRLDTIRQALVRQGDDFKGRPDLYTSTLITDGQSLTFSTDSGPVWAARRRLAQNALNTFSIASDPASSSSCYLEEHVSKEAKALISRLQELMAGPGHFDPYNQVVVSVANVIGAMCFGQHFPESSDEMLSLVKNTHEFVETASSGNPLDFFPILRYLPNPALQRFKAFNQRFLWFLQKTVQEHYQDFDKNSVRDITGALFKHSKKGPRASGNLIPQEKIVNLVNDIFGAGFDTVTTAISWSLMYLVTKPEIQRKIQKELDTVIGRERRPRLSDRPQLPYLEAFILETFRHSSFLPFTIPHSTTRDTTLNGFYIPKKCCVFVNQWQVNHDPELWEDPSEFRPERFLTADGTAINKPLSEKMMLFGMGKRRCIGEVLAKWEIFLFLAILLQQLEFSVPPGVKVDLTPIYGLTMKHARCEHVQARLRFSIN

[13] = target: Cytochrome P450 2C9 (Homo sapiens, UniProt P11712); assay: Inhibition of CYP2C9 (unknown origin); type: ADME
[14] = target: Cytochrome P450 2C19 (Homo sapiens, UniProt P33261); assay: Inhibition of CYP2C19 (unknown origin); type: ADME
[15] = target: Cytochrome P450 2D6 (Homo sapiens, UniProt P10635); assay: Inhibition of CYP2D6 (unknown origin); type: ADME
[16] = target: T2, Cytochrome P450 3A4 (Homo sapiens, UniProt P08684); assay: Inhibition of CYP3A4T (unknown origin); type: ADME
[17] = target: T2, Cytochrome P450 3A4; assay: Inhibition of CYP3A4M (unknown origin); type: ADME
[18] = Half life in Sprague-Dawley rat at 1 mg/kg,iv; type: ADME, organism-based; details: in vivo
[19] = Half life in Sprague-Dawley rat at 5 mg/kg,po; type: ADME, organism-based; details: in vivo
[20] = Tmax in Sprague-Dawley rat at 1 mg/kg,iv; type: ADME, organism-based; details: in vivo
[21] = Tmax in Sprague-Dawley rat at 5 mg/kg,po; type: ADME, organism-based; details: in vivo
[22] = Cmax in Sprague-Dawley rat at 1 mg/kg,iv; type: ADME, organism-based; design: dose 1 mg/kg, route iv; details: in vivo
[23] = Cmax in Sprague-Dawley rat at 5 mg/kg,po; type: ADME, organism-based; design: dose 5 mg/kg, route po; details: in vivo
[24] = AUC (0 to t) in Sprague-Dawley rat at 1 mg/kg,iv; type: ADME, organism-based; design: dose 1 mg/kg, route iv; details: in vivo
[25] = AUC (0 to t) in Sprague-Dawley rat at 5 mg/kg,po; type: ADME, organism-based; design: dose 5 mg/kg, route po; details: in vivo
[26] = Clearance in Sprague-Dawley rat at 1 mg/kg,iv; type: ADME, organism-based; details: in vivo
[27] = Clearance in Sprague-Dawley rat at 5 mg/kg,po; type: ADME, organism-based; details: in vivo
[28] = MRT (0 to t) in Sprague-Dawley rat at 1 mg/kg,iv; type: ADME, organism-based; details: in vivo
[29] = MRT (0 to t) in Sprague-Dawley rat at 5 mg/kg,po; type: ADME, organism-based; details: in vivo
[30] = MRT (0 to infinity) in Sprague-Dawley rat at 1 mg/kg,iv; type: ADME, organism-based; details: in vivo
[31] = MRT (0 to infinity) in Sprague-Dawley rat at 5 mg/kg,po; type: ADME, organism-based; details: in vivo
[32] = target: Voltage-gated inwardly rectifying potassium channel KCNH2 (Homo sapiens, UniProt Q12809); assay: Inhibition of human ERG potassium channel expressed in CHO cells by automated patch clamp electrophysiological assay; type: toxicity, cell-based
[33] = Acute toxicity in mouse at 1.2 g/Kg,IG assessed as mouse death; details: in vivo, po, 1200 mg/kg
[34] = Acute toxicity in mouse at 1.2 g/Kg,IG assessed as change in body weight; details: in vivo, po, 1200 mg/kg
[35] = Acute toxicity in mouse at 1.2 g/Kg,IG assessed as behavioral abnormalities; details: in vivo, po, 1200 mg/kg
[36] = Acute toxicity in mouse at 1.2 g/Kg,IG assessed as brain damage by H and E staining based analysis; type: tissue-based; details: in vivo, po, 1200 mg/kg
[37] = Acute toxicity in mouse at 1.2 g/Kg,IG assessed as heart damage by H and E staining based analysis; type: tissue-based; details: in vivo, po, 1200 mg/kg
[38] = Acute toxicity in mouse at 1.2 g/Kg,IG assessed as liver damage by H and E staining based analysis; details: in vivo, po, 1200 mg/kg
[39] = Acute toxicity in mouse at 1.2 g/Kg,IG assessed as spleen damage by H and E staining based analysis; details: in vivo, po, 1200 mg/kg
[40] = Acute toxicity in mouse at 1.2 g/Kg,IG assessed as lung damage by H and E staining based analysis; details: in vivo, po, 1200 mg/kg
[41] = Acute toxicity in mouse at 1.2 g/Kg,IG assessed as kidney damage by H and E staining based analysis; details: in vivo, po, 1200 mg/kg
[42] = AUC (0 to infinity) in Sprague-Dawley rat at 1 mg/kg,iv; type: ADME, organism-based; design: time infinity, dose 1 mg/kg, route iv; details: in vivo
[43] = AUC (0 to infinity) in Sprague-Dawley rat at 5 mg/kg,po; type: ADME, organism-based; design: time infinity, dose 5 mg/kg, route po; details: in vivo

T2 sequence (P08684 whole entry): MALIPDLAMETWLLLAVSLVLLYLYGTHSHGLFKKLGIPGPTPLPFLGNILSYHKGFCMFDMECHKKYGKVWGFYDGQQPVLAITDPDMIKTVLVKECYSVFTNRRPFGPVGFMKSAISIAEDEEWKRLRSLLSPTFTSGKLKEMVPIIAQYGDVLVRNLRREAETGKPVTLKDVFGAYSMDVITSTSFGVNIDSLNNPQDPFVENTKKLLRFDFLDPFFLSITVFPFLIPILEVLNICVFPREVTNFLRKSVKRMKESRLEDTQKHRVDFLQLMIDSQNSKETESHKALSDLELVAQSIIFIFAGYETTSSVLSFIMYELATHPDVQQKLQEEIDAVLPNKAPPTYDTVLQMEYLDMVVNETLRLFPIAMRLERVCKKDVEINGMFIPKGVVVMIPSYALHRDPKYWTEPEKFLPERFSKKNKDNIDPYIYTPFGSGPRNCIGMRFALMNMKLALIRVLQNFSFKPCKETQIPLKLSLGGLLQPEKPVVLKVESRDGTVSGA
Sequence of Cytochrome P450 2D6 (P10635 whole entry): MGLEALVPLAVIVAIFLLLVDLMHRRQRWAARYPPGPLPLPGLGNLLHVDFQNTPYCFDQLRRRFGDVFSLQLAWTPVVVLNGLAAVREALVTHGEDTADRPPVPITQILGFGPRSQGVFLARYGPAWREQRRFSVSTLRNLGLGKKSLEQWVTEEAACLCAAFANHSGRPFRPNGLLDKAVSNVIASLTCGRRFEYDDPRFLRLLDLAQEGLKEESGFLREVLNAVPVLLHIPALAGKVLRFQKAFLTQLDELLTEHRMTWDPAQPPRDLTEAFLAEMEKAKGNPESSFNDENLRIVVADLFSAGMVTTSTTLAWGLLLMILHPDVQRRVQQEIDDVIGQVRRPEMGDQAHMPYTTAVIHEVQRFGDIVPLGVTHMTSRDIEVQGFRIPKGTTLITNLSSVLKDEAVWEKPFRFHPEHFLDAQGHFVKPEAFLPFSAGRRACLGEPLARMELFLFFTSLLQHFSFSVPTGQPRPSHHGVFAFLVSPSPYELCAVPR
Sequence of Cytochrome P450 2C19 (P33261 whole entry): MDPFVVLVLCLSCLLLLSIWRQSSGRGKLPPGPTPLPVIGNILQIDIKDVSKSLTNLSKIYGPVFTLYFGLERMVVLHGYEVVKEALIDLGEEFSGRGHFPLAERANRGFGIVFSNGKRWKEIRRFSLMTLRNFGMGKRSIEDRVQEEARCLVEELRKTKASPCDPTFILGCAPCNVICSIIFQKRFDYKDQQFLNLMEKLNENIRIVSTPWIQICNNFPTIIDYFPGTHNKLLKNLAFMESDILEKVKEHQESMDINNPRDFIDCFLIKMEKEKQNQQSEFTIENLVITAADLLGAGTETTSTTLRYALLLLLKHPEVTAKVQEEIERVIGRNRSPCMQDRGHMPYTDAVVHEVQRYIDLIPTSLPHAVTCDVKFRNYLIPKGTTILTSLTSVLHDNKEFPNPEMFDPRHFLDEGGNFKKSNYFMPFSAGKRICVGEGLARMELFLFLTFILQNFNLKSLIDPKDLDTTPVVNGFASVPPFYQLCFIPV
Sequence of Voltage-gated inwardly rectifying potassium channel KCNH2 (Q12809 whole entry): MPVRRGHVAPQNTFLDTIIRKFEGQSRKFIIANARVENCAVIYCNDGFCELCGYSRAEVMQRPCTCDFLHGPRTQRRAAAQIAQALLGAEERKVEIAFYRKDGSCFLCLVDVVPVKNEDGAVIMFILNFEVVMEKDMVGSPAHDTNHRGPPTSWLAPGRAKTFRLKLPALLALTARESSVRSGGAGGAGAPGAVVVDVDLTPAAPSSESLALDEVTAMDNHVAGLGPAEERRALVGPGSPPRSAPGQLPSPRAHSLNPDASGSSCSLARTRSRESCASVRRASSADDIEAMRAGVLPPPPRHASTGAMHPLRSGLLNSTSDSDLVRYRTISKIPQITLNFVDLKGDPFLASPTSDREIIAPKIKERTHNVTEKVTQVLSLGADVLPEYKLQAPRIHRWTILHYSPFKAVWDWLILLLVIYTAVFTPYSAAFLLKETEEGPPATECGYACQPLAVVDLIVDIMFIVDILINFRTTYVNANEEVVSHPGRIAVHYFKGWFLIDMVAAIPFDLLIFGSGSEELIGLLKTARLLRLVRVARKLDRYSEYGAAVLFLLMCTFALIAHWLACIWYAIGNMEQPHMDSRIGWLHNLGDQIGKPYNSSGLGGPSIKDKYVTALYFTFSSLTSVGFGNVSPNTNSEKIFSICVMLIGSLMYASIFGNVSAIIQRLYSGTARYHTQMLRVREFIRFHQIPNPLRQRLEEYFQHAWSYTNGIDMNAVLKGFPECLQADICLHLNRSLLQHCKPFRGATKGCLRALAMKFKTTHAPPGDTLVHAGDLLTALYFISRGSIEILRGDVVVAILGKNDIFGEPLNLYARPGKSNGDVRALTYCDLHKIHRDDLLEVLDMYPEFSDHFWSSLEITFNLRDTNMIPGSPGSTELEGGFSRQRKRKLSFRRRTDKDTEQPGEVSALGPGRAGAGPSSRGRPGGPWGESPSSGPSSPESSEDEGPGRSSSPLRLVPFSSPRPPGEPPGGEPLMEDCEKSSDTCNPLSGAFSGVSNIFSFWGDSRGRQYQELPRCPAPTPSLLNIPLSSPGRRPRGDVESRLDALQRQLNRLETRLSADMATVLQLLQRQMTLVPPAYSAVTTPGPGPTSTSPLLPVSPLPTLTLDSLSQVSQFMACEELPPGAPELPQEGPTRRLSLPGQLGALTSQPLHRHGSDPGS
Sequence of Cytochrome P450 2C9 (P11712 whole entry): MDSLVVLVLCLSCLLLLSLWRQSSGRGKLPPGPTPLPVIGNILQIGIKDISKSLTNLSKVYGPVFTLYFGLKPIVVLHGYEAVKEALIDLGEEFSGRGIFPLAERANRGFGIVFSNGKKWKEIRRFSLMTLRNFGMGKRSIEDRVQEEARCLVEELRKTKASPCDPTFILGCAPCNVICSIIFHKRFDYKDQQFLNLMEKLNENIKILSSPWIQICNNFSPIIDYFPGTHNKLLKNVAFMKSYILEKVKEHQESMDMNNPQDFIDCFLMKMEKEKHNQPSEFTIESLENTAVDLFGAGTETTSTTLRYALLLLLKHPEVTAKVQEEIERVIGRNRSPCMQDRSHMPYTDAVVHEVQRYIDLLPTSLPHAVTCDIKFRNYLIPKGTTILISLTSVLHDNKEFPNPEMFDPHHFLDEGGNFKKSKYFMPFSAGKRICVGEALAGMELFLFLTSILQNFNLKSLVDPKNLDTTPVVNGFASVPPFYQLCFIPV

For Cc1cccc(-c2cc(C#N)cc(Oc3c(C(F)(F)F)ccn(Cc4n[nH]c(=O)n4C)c3=O)c2)c1, the pEC50 [1] was 7.89, the pEC50 [2] was < 4.46 and the selectivity ratio [3] was 2020. For the same compound, the pEC50 [4] was 7.62, the pEC50 [5] was 7.89 and the pEC50 [6] was 7.24. It also gave a pEC50 [7] of 6.12, a pEC50 [8] of 7.60 and a pEC50 [9] of 4.56. The pEC50 [10] was 6.59, the pIC50 [11] was 7.39 and the pIC50 [12] was < 4.30. For the same compound, the pIC50 [13] was 4.42, the pIC50 [14] was 4.54 and the pIC50 [15] was < 4.30. For the same compound, the pIC50 [16] was 4.60, the pIC50 [17] was < 4.30 and the half-life [18] was 1.9 h. For the same compound, the half-life [19] was 8.45 h, the Tmax [20] was 4.8 min and the Tmax [21] was 6.67 h. The Cmax [22] was 469 ng/mL, the Cmax [23] was 583 ng/mL and the AUC(0-t) [24] was 892 ng·h/mL. It also gave an AUC(0-t) [25] of 4980 ng·h/mL, a clearance [26] of 17.9 mL/min/kg and a CL/F [27] of 13.2 mL/min/kg. The MRT last [28] was 2.03 h, the MRT last [29] was 6.79 h and the MRT inf [30] was 2.48 h. The MRT inf [31] was 13.9 h, the pIC50 [32] was < 3.70 and the Activity [33] was “Non-Toxic”. The Activity [34] was “Non-Toxic”, the Activity [35] was “Non-Toxic” and the Activity [36] was “Non-Toxic”. For the same compound, the Activity [37] was “Non-Toxic”, the Activity [38] was “Non-Toxic” and the Activity [39] was “Non-Toxic”. For the same compound, the Activity [40] was “Non-Toxic”, the Activity [41] was “Non-Toxic” and the AUC(0-inf) [42] was 940 ng·h/mL. It also gave an AUC(0-inf) [43] of 6590 ng·h/mL.
